Laboratory results published in article PMC6691788, “Design and synthesis of phthalazine-based compounds as potent anticancer agents with potential antiangiogenic activity via VEGFR-2 inhibition” (Journal of Enzyme Inhibition and Medicinal Chemistry, 2019).

Legend:
Test in all cases: NCI 60 cell panel SRB screen
Format in all cases: cell-based
UACC-257 = conditions: Homo sapiens, UACC-257, read-out: percent cell growth promotion
SF-295 = conditions: Homo sapiens; SF-295, single dose 10 μM; read-out: percent cell growth promotion
A498 = conditions: Homo sapiens; A498, single dose 10 μM; read-out: percent cell growth promotion
HOP-62 = conditions: Homo sapiens; HOP-62, single dose 10 μM; read-out: percent cell growth promotion
HCT-116 = conditions: Homo sapiens; HCT-116, single dose 10 μM; read-out: percent cell growth promotion
OVCAR-5 = conditions: Homo sapiens; OVCAR-5, single dose 10 μM; read-out: percent cell growth promotion
MDA-MB-468 = conditions: Homo sapiens, MDA-MB-468; MDA-MBA-468, single dose 10 μM; read-out: percent cell growth promotion
Outline: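 Cells in RPMI 1640 with 5% FBS, preincubated 24 h, then exposed to five concentrations for 48 h at 37 °C. TCA fixation, SRB staining, absorbance at 515 nm; a time-zero plate allows GI50 (50% reduction in net protein gain), TGI and LC50 (50% loss versus start).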

COLO 205 = conditions: Homo sapiens; COLO 205, single dose 10 μM; read-out: percent cell growth promotion
SF-268 = conditions: Homo sapiens; SF-268, single dose 10 μM; read-out: percent cell growth promotion
SK-OV-3 = conditions: Homo sapiens; SK-OV-3, single dose 10 μM; read-out: percent cell growth promotion
MOLT-4 = conditions: Homo sapiens; MOLT-4, single dose 10 μM; read-out: percent cell growth promotion
K-562 = conditions: Homo sapiens, K562; K-562, single dose 10 μM; read-out: percent cell growth promotion
NCI-H23 = conditions: Homo sapiens; NCI-H23, single dose 10 μM; read-out: percent cell growth promotion
NCI/ADR-RES = conditions: Homo sapiens, single dose 10 μM, read-out: percent cell growth promotion
U251 = conditions: Homo sapiens, U-251; U251, single dose 10 μM; read-out: percent cell growth promotion
SK-MEL-28 = conditions: Homo sapiens, SK-MEL-28, read-out: percent cell growth promotion
A549/ATCC = conditions: Homo sapiens, single dose 10 μM, read-out: percent cell growth promotion
ACHN = conditions: Homo sapiens, single dose 10 μM, read-out: percent cell growth promotion
HCT-15 = conditions: Homo sapiens; HCT-15, single dose 10 μM; read-out: percent cell growth promotion

Row | Compound | activity at 10 µM (UACC-257) [%] | activity at 10 µM (SF-295) [%] | activity at 10 µM (A498) [%] | activity at 10 µM (HOP-62) [%] | activity at 10 µM (HCT-116) [%] | activity at 10 µM (OVCAR-5) [%] | activity at 10 µM (MDA-MB-468) [%] | activity at 10 µM (COLO 205) [%] | activity at 10 µM (SF-268) [%] | activity at 10 µM (SK-OV-3) [%] | activity at 10 µM (MOLT-4) [%] | activity at 10 µM (K-562) [%] | activity at 10 µM (NCI-H23) [%] | activity at 10 µM (NCI/ADR-RES) [%] | activity at 10 µM (U251) [%] | activity at 10 µM (SK-MEL-28) [%] | activity at 10 µM (A549/ATCC) [%] | activity at 10 µM (ACHN) [%] | activity at 10 µM (HCT-15) [%]
1 | c1ccc(N2CCN(c3nncc4ccccc34)CC2)nc1 [Compound 8d, 1–(4-(Pyridin-2-yl)piperazin-1-yl)phthalazine] | 99 | 107 | 97.8 | 110 | 103 | 105 | 93.3 | 106 | 103 | 104 | 106 | 106 | 105 | 109 | 96.9 | 108 | 100 | 115 | 108
2 | CCOC(=O)N1CCN(c2nnc(C)c3ccccc23)CC1 [Compound 8f, Ethyl 4–(4-methylphthalazin-1-yl)piperazine-1-carboxylate] | 92.4 | 94.2 | 76.5 | 100 | 103 | 95 | 104 | 109 | 101 | 101 | 109 | 100 | 104 | 109 | 96 | 113 | 94.1 | 107 | 98.6
3 | Cc1nnc(N2CCN(c3ccccc3)CC2)c2ccccc12 [Compound 8g, 1-Methyl-4–(4-phenylpiperazin-1-yl)phthalazine] | 93 | 96 | 71.7 | 97.1 | 113 | 98.2 | 98.8 | 97.7 | 108 | 96.5 | 110 | 116 | 103 | 107 | 96.7 | 109 | 99.3 | 100 | 98.5
